Reference: patent US20140004192A1, “PHARMACEUTICAL FORMULATIONS OF INDIBULIN AND USES THEREOF” (Ziopharm Oncology, Inc., priority 2012, published 2014)
Read-outs that look alike come from different tables or passages of the source.

Columns and labels:
[1] = cited from earlier work
[2] = Microcentrifuge dissolution test in model fasted duodenal solution (MFDS); assay type: physicochemical; details: dosed at 200 μgA/mL
Method: The microcentrifuge dissolution test was performed to assess the ability of the indibulin SDD to sustain solubilized drug levels and to determine suspension stability. Using this method, 10% A HPMCAS-H(HPMCAS high grade), 15% A HPMCAS-H, 20% A HPMCAS-H, 25% A HPMCAS-H, 25% A HPMCAS-M (HPMCAS medium grade) and 50% A HPMCAS-M SDD formulations were tested. Specifically, the microcentrifuge dissolution test measures the supersaturation of drug above the crystalline solubility when dosed into the model fasted duodenal solution (MFDS).
In the microcentrifuge dissolution test, indibulin HPMCAS SDDs were each dosed into MFDS, which is 0.5% taurocholic acid, sodium salt hydrate (NaTC)/1-palmitoyl-2-oleoyl-sn-glycero-3-phosphocholine (POPC) in phosphate buffer solution (PBS, pH 6.5). In each resulted sample, the concentration of dissolved indibulin would have been 200 μg active drug per mL (200 μgA/mL), if all of the indibulin had dissolved. The samples were centrifuged at 13,000 rpm at 37° C. for 1 minute. The supernatant solution of each sample was then analyzed by HPLC. The remaining sample was mixed and allowed to stand undisturbed until next measurement was taken. […]

[3] = Rat pharmacokinetic study, second study (dose response); assay type: in vivo, rats; details: plasma, po; for AUC(0-t) / Cmax / Tmax: Second Study; for concentration at 0 h / concentration at 0.5 h / concentration at 1 h / concentration at 2 h / concentration at 4 h / concentration at 6 h / concentration at 10 h: second study, read-out: plasma indibulin
Method: The second study was designed to determine the dose response of indibulin plasma concentration with the 10% A SDD formulation. In general, 10% A SDD was administered p.o. at 10, 15 and 20 mg/kg and plasma indibulin concentrations were determined at several time points.
All rats used in the second study were fasted 12 hours prior to dose, and food was returned 4 hours post dose. Indibulin in crystalline form was suspended in 0.5% Methocel A at 10 mg/kg, 15 mg/kg and 20 mg/kg by vortexing and sonicating. The indibulin SDD formulations were made by combining 10% active indibulin SDD at 10 mg/kg, 15 mg/kg and 20 mg/kg in a mortar with 0.5% Methocel A and using a pestle to gradually mix in to solution. There were six rats per group, all animals were weighed and the dose volume calculated so that each rat received the test article orally at a volume of 10 mL/kg. The first three rats in each group were bled at […], 2, and 6 hours post dose; the remaining three rats in each group were bled at 1, 4, and 10 hours post dose. For blood collection at all time points, all animals were anesthetized with an inhalation of 4% isoflurane and 1.5% oxygen; once it was determined that the animal was adequately anesthetized (no reaction to physical stimulation) using a capillary tube the orbital venous plexus was punctured and a volume of 1 mL of blood was collected in to a sodium heparin tube. Once the blood was collected the sodium heparin tube was inverted ten times, and placed on ice until centrifuged for 10 minutes at 2510 rpm. The plasma was decanted into labeled Eppendorfs and stored at −80° C. until analyzed by HPLC with MS/MS Detection. All data were acquired using Applied Biosystems/MDS-Sciex Analyst Version 1.5; processed, and reported using Watson Version 7.3.0.01TM, Thermo Fisher Scientific, Inc.; and are summarized in FIG. 13 and FIG. 14.

Membrane-permeation test = assay type: physicochemical; details: feed MFDS, 37° C.
Method: The 10% A HPMCAS-H(HPMCAS high grade), 15% A HPMCAS-H, 20% A HPMCAS-H, 25% A HPMCAS-H, 25% A HPMCAS-M (HPMCAS medium grade) and 50% A HPMCAS-M SDD formulations were also evaluated in a membrane-permeation test at 37° C. in a temperature-controlled box. Test procedures were described, for example, in U.S. Pat. No. 7,611,630. For example, a membrane-permeation test of 10% A HPMCAS-H indibulin SDD was performed using the following procedures: • 1. Accurately weigh 1 mgA (10 mg of 10% A:HPMCAS-H SDD) into the outer-glass reservoir of the test apparatus. All samples are prepared in duplicates. • 2. Add 5 mL MFDS and start the timer. • 3. Cap each reservoir and vortex at medium setting for 1 minute. Stir at 100 rpm. • 4. After 9 minutes of addition of MFDS, add 5 mL of 80/20 (wt/wt) […]/Decane permeate to the inside of the membrane cells. • 5. After 1 minute (at 10 minutes) place a cell containing the permeate solution into the outer reservoir holding the feed/drug solution. Take a O-minute time point. Tilt the entire apparatus at a 45° angle to ensure that no air bubbles are trapped under the membrane. • 6. Place apparatus back on stir plate at 100 rpm. • 7. […]
This test assessed the rate of solubilized drug indibulin that passed through a synthetic membrane from aqueous MFDS to an aqueous immiscible organic sink solution. […]

SMILES: O=C(Nc1ccncc1)C(=O)c1cn(Cc2ccc(Cl)cc2)c2ccccc12 [Bulk Crystalline Drug, indibulin]
- solubility in water, methanol, ethanol or 2-propanol [1]: practically insoluble
- AUC90 ([2]; MFDS pH 6.5, first 90 min): 160 µg·min/mL
- C90 ([2]; concentration in MFDS at 90 min): 1 µg/mL
- C1200 ([2]; concentration in MFDS at 1200 min): 3 µg/mL
- Cmax90 ([2]; maximum concentration of indibulin in MFDS pH 6.5, first 90 min): 2000 ng/mL
- AUC(0-t) ([3]; rat p.o. 10 mg/kg (60 mg/m^2)): 48 ng·h/mL
- Cmax ([3]; rat p.o. 10 mg/kg (60 mg/m^2)): 8.6 ng/mL
- Tmax ([3]; rat p.o. 10 mg/kg (60 mg/m^2)): 2 h
- AUC(0-t) ([3]; rat p.o. 15 mg/kg (90 mg/m^2)): 146 ng·h/mL
- Cmax ([3]; rat p.o. 15 mg/kg (90 mg/m^2)): 24 ng/mL
- Tmax ([3]; rat p.o. 15 mg/kg (90 mg/m^2)): 4 h
- AUC(0-t) ([3]; rat p.o. 20 mg/kg (120 mg/m^2)): 110 ng·h/mL
- Cmax ([3]; rat p.o. 20 mg/kg (120 mg/m^2)): 21 ng/mL
- Tmax ([3]; rat p.o. 20 mg/kg (120 mg/m^2)): 4 h
- concentration at 0 h ([3]; rat p.o. 10 mg/kg): 0 ng/mL
- concentration at 0.5 h ([3]; rat p.o. 10 mg/kg): 2 ng/mL
- concentration at 1 h ([3]; rat p.o. 10 mg/kg): 4 ng/mL
- concentration at 2 h ([3]; rat p.o. 10 mg/kg): 9 ng/mL
- concentration at 4 h ([3]; rat p.o. 10 mg/kg): 4 ng/mL
- concentration at 6 h ([3]; rat p.o. 10 mg/kg): 7 ng/mL
- concentration at 10 h ([3]; rat p.o. 10 mg/kg): 2 ng/mL
- concentration at 0 h ([3]; rat p.o. 15 mg/kg): 0 ng/mL
- concentration at 0.5 h ([3]; rat p.o. 15 mg/kg): 10 ng/mL
- concentration at 1 h ([3]; rat p.o. 15 mg/kg): 17 ng/mL
- concentration at 2 h ([3]; rat p.o. 15 mg/kg): 17 ng/mL
- concentration at 4 h ([3]; rat p.o. 15 mg/kg): 24 ng/mL
- concentration at 6 h ([3]; rat p.o. 15 mg/kg): 7 ng/mL
- concentration at 10 h ([3]; rat p.o. 15 mg/kg): 19 ng/mL
- concentration at 0 h ([3]; rat p.o. 20 mg/kg): 0 ng/mL
- concentration at 0.5 h ([3]; rat p.o. 20 mg/kg): 9 ng/mL
- concentration at 1 h ([3]; rat p.o. 20 mg/kg): 12 ng/mL
- concentration at 2 h ([3]; rat p.o. 20 mg/kg): 14 ng/mL
- concentration at 4 h ([3]; rat p.o. 20 mg/kg): 21 ng/mL
- concentration at 6 h ([3]; rat p.o. 20 mg/kg): 7 ng/mL
- concentration at 10 h ([3]; rat p.o. 20 mg/kg): 6 ng/mL
- Average Flux (Membrane-permeation test): 0.10 μgA/cm^2 × min
